We go through one molecule from patent US10519211B2, “Compounds as peptidic GLP1/glucagon/GIP receptor agonists” (SANOFI, priority 2016, dated 2019).

pEC50: −log10 of the molar value. Some results are limits rather than exact numbers.

The target in series [1] is T1, human GIP receptor (hGIP-R) (Homo sapiens, UniProt P48546).
T1 construct: expressed in transfected cells; host or cells: HEK-293
T1 sequence (P48546 22-466): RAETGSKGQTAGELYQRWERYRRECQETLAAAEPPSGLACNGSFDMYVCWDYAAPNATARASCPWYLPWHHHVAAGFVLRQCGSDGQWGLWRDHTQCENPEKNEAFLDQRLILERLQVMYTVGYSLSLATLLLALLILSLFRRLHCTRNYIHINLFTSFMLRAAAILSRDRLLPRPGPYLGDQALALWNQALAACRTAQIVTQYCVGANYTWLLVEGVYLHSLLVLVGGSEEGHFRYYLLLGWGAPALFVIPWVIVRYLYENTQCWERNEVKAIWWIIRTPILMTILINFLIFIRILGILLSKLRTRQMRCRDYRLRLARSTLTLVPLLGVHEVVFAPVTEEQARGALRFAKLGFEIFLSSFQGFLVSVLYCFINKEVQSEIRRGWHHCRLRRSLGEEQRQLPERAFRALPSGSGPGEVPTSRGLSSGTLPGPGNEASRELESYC
The series is described as follows: cAMP response (HTRF) of HEK-293 cells stably expressing human GIP receptor. It is filed as cell-based. The note with it: Table 8; cAMP formation. An outline of the steps: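 HEK-293 cells stably expressing the receptor, resuspended in HBSS/20 mM HEPES/0.1% BSA/2 mM IBMX at 400000 cells/ml, were exposed to increasing concentrations of peptide for 30 minutes at room temperature. Formed cAMP was measured by HTRF to give potency.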
On the technique in general: In TR-FRET formats the signal depends on donor and acceptor labels being close together.

Series [2] in a line: Solubility assessment (UPLC-UV). The settings on record: acetate buffer pH 4.5, 2.7 mg/ml m-cresol (buffer system A), target 10 mg/ml. It is filed as physicochemical. An outline of the steps:
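Peptides at 10 mg/mL (purity-corrected, by UPLC/MS) in 100 mM acetate buffer pH 4.5 with 2.7 mg/ml m-Cresol, gently agitated 1 hour, then centrifuged 15 min at 2500 RCF. Supernatant, diluted 1:10, quantified by UPLC-UV peak area against a reference peptide standard curve, extinction-coefficient corrected.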

One may read the pEC50 as the EC50 on a negative log10 scale, so that one unit is a factor of ten. The low end stands for a large EC50, the high end for a small EC50. The solubility is how much of the substance goes into solution per volume. Higher therefore signals a readily soluble substance.

On to `CCCCCCCCCCCCCCCC(=O)N[C@@H](CCC(=O)N[C@@H](CCC(=O)NCCCC[C@H](NC(=O)[C@H](CC(C)C)NC(=O)[C@H](CCCCN)NC(=O)[C@H](CO)NC(=O)[C@H](CC(C)C)NC(=O)[C@H](CC(=O)O)NC(=O)[C@H](CO)NC(=O)[C@@H](NC(=O)[C@H](Cc1ccccc1)NC(=O)[C@@H](NC(=O)CNC(=O)[C@H](CCC(N)=O)NC(=O)C(C)(C)NC(=O)[C@@H](N)Cc1c[nH]cn1)[C@@H](C)O)[C@@H](C)O)C(=O)N[C@@H](CCC(=O)O)C(=O)N[C@@H](CCC(=O)O)C(=O)N[C@@H](CCC(N)=O)C(=O)N[C@@H](CCCNC(=N)N)C(=O)N[C@@H](CCC(N)=O)C(=O)NC(C)(C)C(=O)N[C@@H](CCC(=O)O)C(=O)N[C@@H](Cc1ccccc1)C(=O)N[C@H](C(=O)N[C@@H](CCC(=O)O)C(=O)N[C@@H](Cc1c[nH]c2ccccc12)C(=O)N[C@@H](CC(C)C)C(=O)N[C@@H](CCCCN)C(=O)N[C@@H](C)C(=O)NCC(=O)NCC(=O)N[C@@H](Cc1c[nH]cn1)C(=O)N1CCC[C@H]1C(=O)N[C@@H](CO)C(=O)NC(C)(C)C(=O)N[C@@H](CCCCN)C(=O)N1CCC[C@H]1C(=O)N1CCC[C@H]1C(=O)N1CCC[C@H]1C(=O)N[C@@H](CCCCN)C(N)=O)[C@@H](C)CC)C(=O)O)C(=O)O` [SEQ ID NO: 8, H-Aib-Q-G-T-F-T-S-D-L-S-K-L-K[gGlu-gGlu-Palm]-E-E-Q-R-Q-Aib-E-F-I-E-W-L-K-A-G-G-H-P-S-Aib-K-P-P-P-K-NH2], for which, in series [1], the pEC50 was 11.25. Besides, in series [2], the solubility at 1 h was greater than 10 mg/mL.
